Data taken from US9023821B2, “Use of MicroRNA for treating diseases associated with a dysfunction of the cilia in multiciliated epithelial cells” (Centre National de la Recherche Scientifique, priority 2009, dated 2015).

What was measured:
[1] = tested on: human airway epithelial cells (HAECs); test: High-throughput sequencing (HTS) of miRNAs at four stages of differentiation of HAECs; details: for Modulation (ratio of the level of intensity of expression in log2 in two stages of differentiation) measured by high-throughput sequencing, D7 − D0 / Modulation (ratio of the level of intensity of expression in log2 in two stages of differentiation) measured by high-throughput sequencing, FC − D7 / Modulation (ratio of the level of intensity of expression in log2 in two stages of differentiation) measured by high-throughput sequencing, WD − D0 / Modulation (ratio of the level of intensity of expression in log2 in two stages of differentiation) measured by high-throughput sequencing, WD − FC / Level of intensity of expression in log2 measured by high-throughput sequencing, D0 / Level of intensity of expression in log2 measured by high-throughput sequencing, D7 / Level of intensity of expression in log2 measured by high-throughput sequencing, FC / Level of intensity of expression in log2 measured by high-throughput sequencing, WD: Table VI; for Level of intensity of expression in log2 At the differentiated stage (WD) measured in HTS: healthy human airway epithelial tissue; for Level of intensity of expression in log2 measured by high-throughput sequencing, D0: stage D0; for Level of intensity of expression in log2 measured by high-throughput sequencing, D7: stage D7; for Level of intensity of expression in log2 measured by high-throughput sequencing, FC: stage FC; for Level of intensity of expression in log2 At the differentiated stage (WD) measured in HTS / Level of intensity of expression in log2 measured by high-throughput sequencing, WD: stage WD
Procedure, shortened: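 Reads per 5p and 3p strand scaled to 10^6 sequences, then to percentage abundance; linear model plus empirical Bayes normalization. Retained miRNAs exceeded 1% of total in at least one condition, with |Log2 Ratio| below 0.5 and adjusted P-value below 0.05.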

[2] = tested on: human airway epithelial cells (HAECs); test: Agilent miRNA chips, miRNA expression at four stages of differentiation of HAECs; details: for Modulation (ratio of the level of intensity of expression in log2 in two stages of differentiation) measured with the Agilent chips, D7 − D0 / Modulation (ratio of the level of intensity of expression in log2 in two stages of differentiation) measured with the Agilent chips, FC − D7 / Modulation (ratio of the level of intensity of expression in log2 in two stages of differentiation) measured with the Agilent chips, WD − D0 / Modulation (ratio of the level of intensity of expression in log2 in two stages of differentiation) measured with the Agilent chips, WD − FC / Level of intensity of expression in log2 measured with the Agilent chips, D0 / Level of intensity of expression in log2 measured with the Agilent chips, D7 / Level of intensity of expression in log2 measured with the Agilent chips, FC / Level of intensity of expression in log2 measured with the Agilent chips, WD: Table VI; for Modulation (ratio of the level of intensity of expression in log2 at two stages of differentiation), FC − D7 / Modulation (ratio of the level of intensity of expression in log2 at two stages of differentiation), WD − FC: Agilent miRNA chips, Table V; for Level of intensity of expression in log2 measured with the Agilent chips, D0: stage D0; for Level of intensity of expression in log2 measured with the Agilent chips, D7: stage D7; for Level of intensity of expression in log2 measured with the Agilent chips, FC: stage FC; for Level of intensity of expression in log2 measured with the Agilent chips, WD: stage WD
Procedure, shortened: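 Arrays probing 866 human and 89 human viral miRNAs were used in parallel with sequencing. The same patients' RNA was labelled and hybridized following the manufacturer's protocol.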

[3] = tested on: basal cells and pyramidal cells of the airway epithelium; test: miRNA expression in sorted basal cells versus pyramidal cells (ciliated + secretory), HTS and Agilent chips; parameters: species or system human; details: for Modulation of expression of the miRNAs in pyramidal cells (323(−)) relative to basal cells 323(+): HTS and Agilent chips; for Intensity of the level of expression in log2 in pyramidal cells (323(−)): pyramidal cells (ciliated + secretory)
Procedure, shortened: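 Nasal polyp or concha epithelial cells from 3 donors were stained with CD151-PE and anti-tissue factor-FITC for 20 min at 4° C, with DAPI excluding damaged cells. CD151+/TF+ basal and CD151−/TF− ciliated/secretory cells were FACS-sorted; total RNA miRNA profiles came from Agilent chips or high-throughput sequencing.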

Row | Substance | Modulation (ratio of the level of intensity of expression in log2 in two stages of differentiation) measured by high-throughput sequencing, D7 − D0 [1] [log2] | Modulation (ratio of the level of intensity of expression in log2 in two stages of differentiation) measured by high-throughput sequencing, FC − D7 [1] [log2] | Modulation (ratio of the level of intensity of expression in log2 in two stages of differentiation) measured by high-throughput sequencing, WD − D0 [1] [log2] | Modulation (ratio of the level of intensity of expression in log2 in two stages of differentiation) measured by high-throughput sequencing, WD − FC [1] [log2] | Level of intensity of expression in log2 At the differentiated stage (WD) measured in HTS [1] [log2] | Level of intensity of expression in log2 measured by high-throughput sequencing, D0 [1] [log2] | Level of intensity of expression in log2 measured by high-throughput sequencing, D7 [1] [log2] | Level of intensity of expression in log2 measured by high-throughput sequencing, FC [1] [log2] | Level of intensity of expression in log2 measured by high-throughput sequencing, WD [1] [log2] | Modulation (ratio of the level of intensity of expression in log2 in two stages of differentiation) measured with the Agilent chips, D7 − D0 [2] [log2] | Modulation (ratio of the level of intensity of expression in log2 at two stages of differentiation), FC − D7 [2] [log2] | Modulation (ratio of the level of intensity of expression in log2 in two stages of differentiation) measured with the Agilent chips, FC − D7 [2] [log2] | Modulation (ratio of the level of intensity of expression in log2 in two stages of differentiation) measured with the Agilent chips, WD − D0 [2] [log2] | Modulation (ratio of the level of intensity of expression in log2 at two stages of differentiation), WD − FC [2] [log2] | Modulation (ratio of the level of intensity of expression in log2 in two stages of differentiation) measured with the Agilent chips, WD − FC [2] [log2] | Level of intensity of expression in log2 measured with the Agilent chips, D0 [2] [log2] | Level of intensity of expression in log2 measured with the Agilent chips, D7 [2] [log2] | Level of intensity of expression in log2 measured with the Agilent chips, FC [2] [log2] | Level of intensity of expression in log2 measured with the Agilent chips, WD [2] [log2] | Modulation of expression of the miRNAs in pyramidal cells (323(−)) relative to basal cells 323(+) [3] | also measured
1 | hsa-miR-125a-5p: human miRNA, SEQ ID No. 3 (UCCCUGAGACCCUUUAACCUGUGA; expressed or natural sequence; listed as Homo sapiens) | 0.64 | −0.27 | 1.16 | 0.79 | 14.08 | 12.92 | 13.55 | 13.29 | 14.08 | 1.29 | −0.46 | −0.46 | 0.79 | −0.04 | −0.04 | 7.37 | 8.66 | 8.20 | 8.15 | −0.05 | Modulation (ratio of the level of intensity of expression in log2 in two stages of differentiation), D7 − D0 ([1]; HTS): 0.64 log2; Modulation (ratio of the level of intensity of expression in log2 in two stages of differentiation), FC − D7 ([1]; HTS): −0.27 log2; Modulation (ratio of the level of intensity of expression in log2 in two stages of differentiation), WD − FC ([1]; HTS): 0.79 log2; Abundance (%), D0 ([1]; HTS, ALI-D0): 1.69%; Abundance (%), D7 ([1]; HTS, ALI-D7): 2.64%; Abundance (%), FC ([1]; HTS, ALI-FC): 2.13%; Abundance (%), WD ([1]; HTS, ALI-WD): 2.79%; Intensity of the level of expression in log2 in basal cells (323(+)) [3]: 6.63 log2; Intensity of the level of expression in log2 in pyramidal cells (323(−)) [3]: 6.58 log2
2 | hsa-miR-365: human miRNA, SEQ ID No. 41 (UAAUGCCCCUAAAAAUCCUUAU; expressed or natural sequence; listed as Homo sapiens) | −0.39 | 0.00 | −0.39 | 0.00 | 2.78 | 0.41 | 0.01 | 0.01 | 0.01 | −0.02 | −1.21 | −1.21 | −1.18 | 0.05 | 0.05 | 8.44 | 8.41 | 7.21 | 7.25 | −0.99 | Intensity of the level of expression in log2 in basal cells (323(+)) [3]: 4.83 log2; Intensity of the level of expression in log2 in pyramidal cells (323(−)) [3]: 3.84 log2
